This is an account of results in patent US4962109A, “Insecticidally and acaricidally active pyrimidine esters and intermediates therefor” (Imperial Chemical Industries PLC, priority 1985, dated 1990).

What all share (format): in vivo
The test system of assay [1] is Spodoptera exigua (lesser army worm - larvae). Briefly: Residual test on lesser army worm larvae (SP), Cotton leaf, mortality. Particulars: 48 h, 500 ppm, residual, read-out: SP grading of mortality. An outline of the steps: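 Product dissolved in acetone and diluted in water with 0.01% wetting agent to 500, 250 or 100 ppm; larvae and/or cotton leaf host treated. Mortality or knockdown scored one to three days later and graded A (80-100%), B (50-79%) or C (<50%).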

Another assay concerns Myzus persicae (aphids). The experiment in a line: Contact test on aphids (MP), Chinese Cabbage leaf, mortality. Particulars: 72 h, 500 ppm, contact, 3 days, read-out: MP grading of mortality. Summed up:
(§1)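 Graded read-out: A 80-100%, B 50-79%, C below 50% mortality or knockdown, assessed usually 1-3 days post-treatment. Liquid preparations at 500, 250 or 100 ppm by weight, from acetone solution diluted in water with 0.01% wetting agent, applied to pests and/or their host plant or food medium.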

For assay [2], the system named is Nilaparvata lugens (brown plant hopper). Briefly: Contact test on brown plant hopper (NL), Rice plant, mortality. Particulars: 72 h, 3 days, read-out: NL grading of mortality. Here is the method: (§2) The activity of the Product was determined using a variety of insect pests. The Product was used in the form of liquid preparations containing 500, 250 or 100 parts per million (ppm) by weight of the Product. The preparations were made by dissolving the Product in acetone and diluting the solutions with water containing 0.01% by weight of a wetting agent sold under the trade name "LISSAPOL" NX until the liquid preparations contained the required concentration of the Product. "Lissapol" is a Registered Trade Mark.
(§3) The test procedure adopted with regard to each pest was basically the same and comprised supporting a number of the pests on a medium which was usually a host plant or a foodstuff on which the pests feed, and treating either or both the pests and the medium with the preparations. The mortality of the pests was then assessed at periods usually varying from one to three days after the treatment.
(§4) The results of the tests are given in Table III for each of the Products, at the rate in parts per million given in the second column as a grading of mortality designated as A, B or C wherein A indicates 80-100% mortality or knockdown, B indicates 50-79% mortality or knockdown and C indicates less than 50% mortality or knockdown.

For assay [3], the system named is Tetranychus urticae (spider mites - adult). The experiment in a line: Contact test on spider mites - adult (TUa), French bean leaf, mortality. Particulars: 72 h, 500 ppm, contact, 3 days, read-out: TUa grading of mortality. An outline of the steps:
as §1

For assay [4], the system named is Tetranychus urticae (spider mites - ova). Briefly: Contact test on spider mites - ova (TUe), French bean leaf, mortality. Particulars: 144 h, 500 ppm, contact, 6 days, read-out: TUe grading of mortality. An outline of the steps: as §1
The test system of assay [5] is Diabrotica balteata (rootworm larvae). Briefly: Residual test on rootworm larvae (DB), Filter paper/maize seed, mortality. Particulars: 48 h, 500 ppm, residual, read-out: DB grading of mortality. Summed up:
as §1

The subject of assay [6] is Heliothis virescens (tobacco budworm - larvae). The experiment in a line: Residual test on tobacco budworm larvae (HV), Cotton leaf, mortality. Particulars: 48 h, read-out: HV grading of mortality. Summed up: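 Product in acetone diluted with water containing 0.01% Lissapol NX, at 500, 250 or 100 ppm; pests and/or host medium (here cotton leaf) treated. Mortality scored one to three days later, graded A (80-100%), B (50-79%), C (<50%).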

The subject of assay [7] is Musca domestica (houseflies - adults). The experiment in a line: Contact test on houseflies - adults (MD), Cotton wool/sugar, mortality. Particulars: 500 ppm, contact, read-out: MD grading of mortality. An outline of the steps: as §1
For assay [8], the system named is Blattella germanica (cockroach nymphs). The experiment in a line: Residual test on cockroach nymphs (BG/R), Plastic pot, mortality. Particulars: 72 h, 3 days, read-out: BG/R grading of mortality. The protocol: as §2, §3, §4
BG/R Blattella germanica

Assay [9] relates to Musca domestica (houseflies - adults). Briefly: Knockdown test on houseflies - adults (MD/KD), Cotton wool/sugar. Particulars: 500 ppm, 4 hours, read-out: MD/KD grading of knockdown. Summed up: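 Adult houseflies exposed to the compound at 500, 250 or 100 ppm in acetone/water with 0.01% wetting agent, on a cotton wool/sugar medium. Knockdown and mortality assessed, graded A (80-100%), B (50-79%) or C (<50%).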

The subject of assay [10] is Nephotettix cincticeps (green leaf hopper - nymphs). The experiment in a line: Contact test on green leaf hopper nymphs (NC), Rice plant, mortality. Particulars: 500 ppm, contact, read-out: NC grading of mortality. An outline of the steps: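 Product dissolved in acetone, diluted in water with 0.01% wetting agent to 500, 250 or 100 ppm; nymphs and/or host rice plants treated. Mortality or knockdown assessed 1–3 days later, graded A (80-100%), B (50-79%), C (<50%).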

Setting [11] is: 24 h, ** test duration of 1 day.
[12] abbreviates: 72 h, * test duration of 3 days.

SMILES strings stand for the structures. Read-outs that look alike come from different tables or passages of the source.

Regarding `CCC(C(=O)OCc1c(F)c(F)c(C)c(F)c1F)c1cnc(C(C)(C)C)nc1` (racemic) [Compound 122, 2,3,5,6-tetrafluoro-4-methyl (RS)-2-[2-(1,1-dimethylethyl)pyrimidin-5-yl]butanoate], the mortality at 500 ppm was 80 to 100% in assay [1] (* test duration of 3 days); 80 to 100% in the assay on Myzus persicae (aphids); below 50% in assay [2]; 80 to 100% in assay [3]; below 50% in assay [4]; 50 to 79% in assay [5] (* test duration of 3 days). In addition, the mortality at 500 ppm in [6] was 80 to 100%; in assay [7] (setting [11]), 80 to 100%; in assay [8], below 50%. Further, the pest or weed control at 500 ppm in assay [9] is 80 to 100%.

Regarding `C=CCc1c(F)c(F)c(COC(=O)C(c2cnc(C(Cl)(Cl)Cl)nc2)C(C)C)c(F)c1F` (racemic) [Compound 117, 2,3,5,6-tetrafluoro-4-(prop-2-en-1-yl)benzyl (RS)-2-(2-trichloromethylpyrimidin-5-yl)-3-methylbutanoate], the mortality at 500 ppm in assay [1] (* test duration of 3 days) fell in the range of 80 to 100%; with Myzus persicae (aphids), 80 to 100%; in assay [2] it was 80 to 100%; in assay [3] it was 80 to 100%; in assay [4], 80 to 100%; in assay [5] (* test duration of 3 days), 50 to 79%. The mortality at 500 ppm in [6], in assay [7] (setting [11]) and in assay [8] was 80 to 100% in each case. Also, the pest or weed control at 500 ppm in assay [9] was 80 to 100%.

In the case of `COCc1c(F)c(F)c(COC(=O)C(c2cnc(Cl)nc2)C(C)C)c(F)c1F` (racemic) [Compound 118, 2,3,5,6-tetrafluoro-4-(methoxymethyl)benzyl (RS)-2-(2-chloropyrimidin-5-yl)-3-methylbutanoate], the mortality at 500 ppm in [1] (* test duration of 3 days) was 50 to 79%; in the assay on Myzus persicae (aphids), 80 to 100%; in assay [2], below 50%; in assay [3], 50 to 79%; in assay [4], below 50%; in assay [5] (* test duration of 3 days), below 50%. In addition, the results for the mortality at 500 ppm in assay [6], in assay [7] (setting [11]) and in assay [8] were 50 to 79%, 80 to 100% and below 50%, respectively.

Regarding `C=CCc1c(F)c(F)c(COC(=O)C(CC)c2cnc(C(C)(C)C)nc2)c(F)c1F` (racemic) [Compound 123, 2,3,5,6-tetrafluoro-4-(prop-2-en-1-yl)benzyl (RS)-2-[2-(1,1-dimethylethyl)pyrimidin-5-yl]butanoate], the mortality at 500 ppm in [1] (* test duration of 3 days) was 80 to 100%; in the assay with Myzus persicae (aphids), 80 to 100%; in assay [2], 80 to 100%; in assay [3] it was 80 to 100%; in assay [4] it was 80 to 100%; in assay [5] (* test duration of 3 days), below 50%. For the same molecule, the mortality at 500 ppm in assay [6] is 80 to 100%; in [7] (setting [11]), 80 to 100%; in [8], 50 to 79%. The pest or weed control at 500 ppm in assay [9] fell in the range of 80 to 100%.

On to `CC(C)(C)c1ncc(C(C(=O)OCc2c(F)c(F)c(Cc3ccccc3)c(F)c2F)C(C)(C)C)cn1` (racemic) [Compound 17, 4-benzyl-2,3,5,6-tetrafluorobenzyl (RS)-2-[2-(1,1-dimethylethyl)pyrimidin-5-yl]-3,3-dimethylbutanoate], for which the mortality at 500 ppm in [1] (2 days) was below 50%; in the assay with Myzus persicae (aphids) it was below 50%; in [3], 50 to 79%; in [4], below 50%; in assay [5] (2 days) it was 80 to 100%; in assay [10] (48 h, 2 days), below 50%. In addition, the mortality at 500 ppm was below 50% in [6]; below 50% in assay [7] (72 h, 3 days); below 50% in assay [8]. For the same molecule, the pest or weed control at 500 ppm in assay [9] was below 50%.

As for `COCc1c(F)c(F)c(COC(=O)C(c2cnc(C)nc2)C(C)(C)C)c(F)c1F` (racemic) [Compound 120, 2,3,5,6-tetrafluoro-4-(methoxymethyl)-benzyl (RS)-2-(2-methylpyrimidin-5-yl)-3,3-dimethylbutanoate], the mortality at 500 ppm in [1] (2 days) was 80 to 100%; in the assay with Myzus persicae (aphids) it was 80 to 100%; in assay [3] it was 80 to 100%; in assay [4], below 50%; in assay [5] (2 days) it was below 50%; in assay [10] (48 h, 2 days), 80 to 100%. Moreover, the mortality at 500 ppm in [6] is 80 to 100%; in assay [7] (72 h, 3 days) it was 80 to 100%; in [8], below 50%. Also, the pest or weed control at 500 ppm in assay [9] is 80 to 100%.

Take `C=CCc1c(F)c(F)c(COC(=O)C(c2cnc(C)nc2)C(C)C)c(F)c1F` (racemic) [Compound 119]: the mortality at 500 ppm in [1] (* test duration of 3 days) is 80 to 100%; with Myzus persicae (aphids) it was 80 to 100%; in [3], 80 to 100%; in [4], below 50%; in [5] (* test duration of 3 days), 80 to 100%; in [10] (setting [12]) it was 80 to 100%. Moreover, the mortality at 500 ppm in assay [6] was below 50%; in [7] (setting [11]), 80 to 100%; in assay [8] it was 80 to 100%. Besides, in assay [9], the pest or weed control at 500 ppm was 80 to 100%.

Regarding `COCc1c(F)c(F)c(COC(=O)C(c2cnc(C(C)(C)C)nc2)C2CC2)c(OC)c1F` (racemic) [Compound 92, 3,5,6-trifluoro-2-methoxy-4-(methoxymethyl)benzyl (RS)-2-[2-(1,1-dimethylethyl)pyrimidin-5-yl]-2-cyclopropylacetate], the mortality at 500 ppm in assay [1] (* test duration of 3 days) is 80 to 100%; in the assay on Myzus persicae (aphids), 80 to 100%; in assay [3], 80 to 100%; in assay [4] it was below 50%; in assay [5] (* test duration of 3 days) it was below 50%; in assay [10] (setting [12]), 80 to 100%. The mortality at 500 ppm was 80 to 100% in assay [6], 80 to 100% in assay [7] (setting [11]) and below 50% in assay [8]. Besides, the pest or weed control at 500 ppm in assay [9] lay in the range of 80 to 100%.

With `CC(C)(C)c1ncc(C(C(=O)OCc2ccc(F)c(Oc3ccccc3)c2)C2CC2)cn1` (racemic) [Compound 125, 4-fluoro-3-phenoxybenzyl (RS)-2-[2-(1,1-dimethylethyl)pyrimidin-5-yl]-2cyclopropylacetate], the mortality at 500 ppm in assay [1] (* test duration of 3 days) was 80 to 100%; in the assay with Myzus persicae (aphids), 80 to 100%; in assay [3], 80 to 100%; in [4] it was below 50%; in [5] (* test duration of 3 days), 80 to 100%; in assay [10] (setting [12]) it was 80 to 100%. Further, the results for the mortality at 500 ppm in assay [6], in assay [7] (setting [11]) and in assay [8] were 80 to 100%, 50 to 79% and below 50%, respectively. Also, the pest or weed control at 500 ppm in assay [9] was 50 to 79%.
